In the supplement of paper PMC10307832:

How the values were obtained:
Experiment in all cases: relative viability (nuclei count vs DMSO), 5 days (fraction); higher = more cells survive
Olaparib + Pemetrexed = compound: O=C(c1cc(Cc2n[nH]c(=O)c3ccccc23)ccc1F)N1CCN(C(=O)C2CC2)CC1 [Olaparib] + Nc1nc2[nH]cc(CCc3ccc(C(=O)N[C@@H](CCC(=O)O)C(=O)O)cc3)c2c(=O)[nH]1 [Pemetrexed] (partner 0.2 µM)
Method in brief: (§1)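 Lung cancer cell lines in 1536-well plates were dosed by pin tool the day after seeding, either with one drug alone or with a fixed anchor-drug dose plus five library-drug doses (not always all listed) in √10 steps. After 5 days, cells were fixed and their nuclei stained in one step (final 0.05% Triton X-100, 1% formaldehyde, 1 ug/ml Hoechst), then counted on 4× images. Relative viability is the nuclei count in treated wells divided by that in vehicle wells. Values are medians of duplicate plates.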

Crizotinib + Bortezomib = compound: C[C@@H](Oc1cc(-c2cnn(C3CCNCC3)c2)cnc1N)c1c(Cl)ccc(F)c1Cl [Crizotinib] + CC(C)C[C@H](NC(=O)[C@H](Cc1ccccc1)NC(=O)c1cnccn1)B(O)O [Bortezomib] (partner 0.002 µM)
Method in brief: as §1

Olaparib + Palbociclib = compound: O=C(c1cc(Cc2n[nH]c(=O)c3ccccc23)ccc1F)N1CCN(C(=O)C2CC2)CC1 [Olaparib] + CC(=O)c1c(C)c2cnc(Nc3ccc(N4CCNCC4)cn3)nc2n(C2CCCC2)c1=O [Palbociclib] (partner 0.5 µM)
Method in brief: as §1

Carfilzomib + Phenformin = compound: CC(C)C[C@H](NC(=O)[C@H](CCc1ccccc1)NC(=O)CN1CCOCC1)C(=O)N[C@@H](Cc1ccccc1)C(=O)N[C@@H](CC(C)C)C(=O)[C@@]1(C)CO1 [Carfilzomib] + N=C(N)NC(=N)NCCc1ccccc1 [Phenformin] (partner 250 µM)
Method in brief: as §1

Cell Line | relative viability (Olaparib + Pemetrexed; first compound 0.08 µM) | relative viability (Olaparib + Pemetrexed; first compound 0.253 µM) | relative viability (Olaparib + Pemetrexed; first compound 2.53 µM) | relative viability (Olaparib + Pemetrexed; first compound 8 µM) | relative viability (Crizotinib + Bortezomib; first compound 0.01 µM) | relative viability (Crizotinib + Bortezomib; first compound 0.03162 µM) | relative viability (Crizotinib + Bortezomib; first compound 0.1 µM) | relative viability (Crizotinib + Bortezomib; first compound 0.3162 µM) | relative viability (Crizotinib + Bortezomib; first compound 1 µM) | relative viability (Olaparib + Palbociclib; first compound 0.08 µM) | relative viability (Olaparib + Palbociclib; first compound 0.253 µM) | relative viability (Olaparib + Palbociclib; first compound 2.53 µM) | relative viability (Olaparib + Palbociclib; first compound 8 µM) | relative viability (Carfilzomib + Phenformin; first compound 0.001 µM) | relative viability (Carfilzomib + Phenformin; first compound 0.003162 µM) | relative viability (Carfilzomib + Phenformin; first compound 0.01 µM) | relative viability (Carfilzomib + Phenformin; first compound 0.03162 µM) | relative viability (Carfilzomib + Phenformin; first compound 0.1 µM)
LXF-289 | 1 | 0.883 | 0.963 | 1 | 0.917 | 0.972 | 1.01 | 0.85 | 0.967 | 0.635 | 0.6 | 0.684 | 0.689 | 0.524 | 0.519 | 0.393 | 0.226 | 0.0577
NCI-H23 | 0.756 | 0.614 | 0.654 | 0.473 | 1.02 | 1.09 | 1.03 |  | 0.979 | 0.586 | 0.542 | 0.475 | 0.5 | 0.772 | 0.684 | 0.762 | 0.36 | 0.134
NCI-H322M | 0.607 | 0.608 | 0.619 | 0.544 | 1.19 | 1.23 | 1.24 | 1.29 | 1.38 | 0.468 | 0.408 | 0.515 | 0.462 | 0.77 | 0.84 | 0.827 | 0.494 | 0.306
NCI-H441 | 0.28 | 0.279 | 0.287 | 0.239 | 0.689 | 0.419 | 0.764 |  | 0.355 | 0.268 | 0.257 | 0.234 | 0.243 | 0.785 | 0.898 | 0.242 | 0.161 | 0.177
NCI-H460 | 0.055 | 0.0542 | 0.0654 | 0.0663 | 1.08 | 1.07 | 1.01 | 1.2 | 1.1 | 0.0979 | 0.0831 | 0.0723 | 0.0812 | 0.553 | 0.582 | 0.571 | 0.0312 | 0.0172
NCI-H520 | 0.866 | 0.646 | 0.604 | 0.458 | 0.492 | 0.5 | 0.586 | 0.522 | 0.331 | 0.239 | 0.207 | 0.179 | 0.152 | 0.609 | 0.46 | 0.227 | 0.287 | 0.227
NCI-H647 | 0.193 | 0.156 | 0.138 | 0.15 | 0.638 | 1.01 | 0.827 | 0.94 | 0.943 | 0.431 | 0.331 | 0.321 | 0.381 | 0.485 | 0.667 | 0.237 | 0.0272 | 0.0185
NCI-H650 | 0.912 | 0.901 | 0.871 | 0.776 | 0.769 | 0.655 | 0.806 | 0.613 | 0.671 | 0.324 | 0.312 | 0.311 | 0.227 |  | 0.536 | 0.451 | 0.345 | 0.148
NCI-H661 | 0.954 | 0.871 | 0.901 | 0.795 | 0.759 | 0.768 | 0.72 | 0.777 | 0.817 | 0.384 | 0.383 | 0.389 | 0.362 | 0.268 | 0.272 | 0.272 | 0.248 | 0.215
NCI-H838 | 0.25 | 0.226 | 0.239 | 0.246 | 0.806 | 0.695 | 0.968 | 0.863 |  | 0.269 | 0.196 | 0.198 | 0.247 | 0.66 | 0.865 | 0.537 | 0.122 | 0.13
NCI-H1355 | 1.04 | 1.01 | 1.05 | 1.08 | 1.23 | 1.21 | 1.22 | 1.1 | 1.24 | 0.364 | 0.422 | 0.407 | 0.414 | 0.427 | 0.51 | 0.469 | 0.302 | 0.167
NCI-H1437 | 0.345 | 0.3 | 0.32 | 0.325 | 0.48 | 0.553 | 0.558 | 0.434 | 0.494 | 0.32 | 0.303 | 0.327 | 0.353 | 0.306 | 0.346 | 0.301 | 0.249 | 0.123
NCI-H1650 | 0.393 | 0.329 | 0.314 | 0.366 | 0.188 | 0.173 | 0.205 | 0.159 | 0.2 | 0.478 | 0.324 | 0.331 | 0.335 | 0.421 | 0.254 | 0.232 | 0.174 | 0.156
NCI-H1651 | 0.624 | 0.586 | 0.553 | 0.334 | 0.93 | 0.979 | 0.939 | 0.815 | 0.924 | 0.547 | 0.494 | 0.493 | 0.384 | 0.33 | 0.342 | 0.173 | 0.133 | 0.0929
NCI-H1666 | 0.945 | 0.772 | 0.856 | 0.822 | 0.791 | 0.981 | 0.829 | 0.796 | 0.912 | 0.669 | 0.717 | 0.677 | 0.609 | 0.594 | 0.569 | 0.528 | 0.428 | 0.278
NCI-H1734 | 0.417 | 0.398 | 0.387 | 0.362 | 1.01 | 0.926 | 0.87 |  | 1.07 | 0.337 | 0.327 | 0.29 | 0.304 | 0.375 | 0.404 | 0.331 | 0.18 | 0.104
NCI-H1755 | 0.447 | 0.68 | 0.419 | 0.396 |  | 0.964 | 0.923 | 0.87 | 0.991 | 0.415 | 0.436 | 0.445 | 0.436 | 0.623 | 0.664 | 0.66 | 0.592 | 0.238
NCI-H1792 | 0.86 | 0.547 | 0.605 | 0.398 | 0.955 | 0.983 | 1.01 | 0.931 | 0.917 | 0.694 | 0.576 | 0.63 | 0.617 | 0.188 | 0.357 | 0.262 | 0.234 | 0.0821
